Target: T1, melatonin ML1A receptor (Homo sapiens, UniProt P48039)
T1 construct: expressed in transfected cells; membrane homogenates
Assay: Melatonergic receptor binding activity (2-[125I]-iodomelatonin, membrane homogenates of NIH-3T3 cells expressing the ML1A receptor)
Conditions: 37° C., 1 hour, class symbols, read-out: Melatonin Binding Affinity (IC50 Range)
Experimental: Melatonergic Receptor Binding Activity
(a) TME=50 mM Tris buffer containing 12.5 mM MgCl2, and 2 mM EDTA, pH 7.4 at 37° C. with concentrated HCl.
(b) Wash buffer: 20 mM Tris base containing 2 mM MgCl2. pH 7.4 at room temperature.
(c) 10^-4 M melatonin (10^-5 M final concentration).
(d) 2-[^125 I]-iodomelatonin, […] final concentration
2. Membrane Homogenates. The melatonin ML1A receptor cDNA was subcloned into pcDNA3 and introduced into NIH-3T3 cells using Lipofectamine. Transformed NIH-3T3 cells resistant to geneticin (G-418) were isolated, and single colonies expressing high levels of 2[^125 Iiodomelatonin binding were isolated. Cells are maintained in DMEM supplemented with 10% calf serum and G-418 (0.5 g/liter). Cells are grown to confluency in T-175 flasks, scraped using Hank's balanced salt solution, and frozen at -80° C. For preparing membrane homogenates,pellets are thawed on ice, and resuspended in TME buffer in the presence of 10 μg/ml aprotinin and leupeptin, and 100 μM phenylmethylsulfonylfluoride. The cells were then homogenized using a dounce homogenizer, and centrifuged. The resulting pellet was resuspended with dounce homogenizer in TME (supplemented with the above protease inhibitors) and frozen. On the day of assay, the small aliquot was thawed on ice and resuspended in ice cold TME (1:50-1:100 v/v) and held on ice until assayed.
3. Incubation: 37° C. for 1 hour. Reaction is terminated by filtration. Filters are washed 3 times.
4. References: Reppert, S. M., and Ebisawa, R. (1994). Neuron, 13, 1177-1185.

T1 sequence (P48039 whole entry): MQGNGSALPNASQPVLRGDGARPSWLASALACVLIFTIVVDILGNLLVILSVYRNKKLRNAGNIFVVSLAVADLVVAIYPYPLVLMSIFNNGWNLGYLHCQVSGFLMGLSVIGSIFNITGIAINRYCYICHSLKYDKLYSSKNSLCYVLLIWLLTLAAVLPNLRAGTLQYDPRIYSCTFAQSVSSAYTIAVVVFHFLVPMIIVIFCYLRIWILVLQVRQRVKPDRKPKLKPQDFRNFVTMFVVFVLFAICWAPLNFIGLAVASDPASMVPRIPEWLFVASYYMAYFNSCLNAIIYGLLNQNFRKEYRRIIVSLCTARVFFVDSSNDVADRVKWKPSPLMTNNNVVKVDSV

SMILES | IC50 [nM]
CCC(=O)NCC1CC12c1cc(F)ccc1-c1ccc(OC)cc12 (stereo not drawn) [Example 12, cis-N-[(2'-Fluoro-7'-methoxy-spiro[cyclopropane-1,9'-[9H]fluoren]-2-yl)methyl]propanamide] | < 10
CCCC(=O)NCC1CC12c1cc(OC)ccc1-c1ccc(OC)cc12 (centres unmarked) [Example 7, N-[(2',7'-Dimethoxyspiro[cyclopropane-1,9'-[9H]fluoren]-2-yl)methyl]butanamide] | < 10
COc1ccc2c(c1)C1(CC1CNC(=O)C(C)(C)C)c1cc(OC)ccc1-2 (centres unmarked) [Example 10, N-[(2',7'-Dimethoxyspiro[cyclopropane-1,9'-[9H]fluoren]-2-yl)methyl]-2,2-dimethylpropanamide] | 100 to 250
CCC(=O)NCC1CC12c1cc(F)ccc1-c1ccc(OC)cc12 (stereo not drawn) [Example 13, trans-N-[(2'-Fluoro-7'-methoxy-spiro[cyclopropane-1,9'-[9H]fluoren]-2-yl)methyl]propanamide] | < 10
CCC(=O)NCC1CC12c1cc(OC)ccc1-c1ccc(OC)cc12 (single isomer, unassigned; (-)) [Example 4, (-)-N-[(2'7'-Dimethoxyspiro[cyclopropane-1,9'-[9H]fluoren]-2-yl)methyl]propanamide] | < 10
COc1ccc2c(c1)C1(CC1CNC(=O)C1CC1)c1cc(OC)ccc1-2 (centres unmarked) [Example 8, N-[(2',7'-Dimethoxyspiro[cyclopropane-1,9'-[9H]fluoren]-2-yl)methyl]cyclopropane carboxamide] | < 10
CCC(=O)NCC1CC12c1cc(OC)ccc1-c1ccc(OC)cc12 (single isomer, unassigned; (+)) [Example 5, (+)-N-[(2',7'-Dimethoxyspiro[cyclopropane-1,9'-[9H]fluoren]-2-yl)methyl]propanamide] | < 10
CCC(=O)NCC1CC12c1cc(OC)ccc1-c1ccc(OC)cc12 (centres unmarked) [Example 3, N-[(2',7'-Dimethoxyspiro[cyclopropane-1,9'-[9H]fluoren]-2-yl)methyl]propanamide] | < 10
COc1ccc2c(c1)C1(CC1CNC(C)=O)c1cc(OC)ccc1-2 (centres unmarked) [Example 6, N-[(2',7'-Dimethoxyspiro[cyclopropane-1,9'-[9H]fluoren]-2-yl)methyl]acetamide] | < 10
COc1ccc2c(c1)C1(CC1CNC(=O)C1CCC1)c1cc(OC)ccc1-2 (centres unmarked) [Example 9, N-[(2',7'-Dimethoxyspiro[cyclopropane-1,9'-[9H]fluoren]-2-yl)methyl]-cyclobutane carboxamide] | 10 to 100

Tested on: circadian rhythms in rats
Assay: not given
Conditions: exogenous administration, Cassone, et al., 1986; cited from earlier work

SMILES | synchronization of circadian rhythms
COc1ccc2[nH]cc(CCNC(C)=O)c2c1 [melatonin, N-acetyl-5-methoxytryptamine] | found to synchronize circadian rhythms in rats

Source: patent US6028112A, “Spirocyclopropyl fluorenes as melatonergic agents” (Bristol-Myers Squibb Company, priority 1998, dated 2000)
